Test results reported in patent US5573923A, “Method for removing N-terminal dipeptides from precursor polypeptides with immobilized dipeptidylaminopeptidase from dictyostelium discoideum” (Eli Lilly and Company, priority 1993, dated 1996).
Each block holds one molecule with its values, some of them ahead of it. Residues, ends and D or L forms follow the SMILES beside them. *: point of attachment. pNA = O=[N+]([O-])c1ccc(N*)cc1; AMC = Cc1cc(=O)oc2cc(N*)ccc12; βNA = c1ccc2cc(N*)ccc2c1; Cbz = O=C(OCc1ccccc1)*

How the values were obtained:
dDAP [1] = assay: Inhibition of GFpNA cleavage by sulfhydryl modifying agents; format: biochemical, Dictyostelium discoideum; conditions: 0.5, 5.0 or 50 mM inhibitor, 15 minutes at room temperature, pH 7; then 4 mM GFpNA, pH 3.5, 37° C.
Description: (§1) After purification or storage, dDAP enzymatic activity was usually monitored by following the cleavage of the chromogenic substrate GFpNA. Typically the assay was performed by diluting the enzyme at least 11 fold into 1.0 ml of 4 mM GFpNA in 0.05M acetic acid adjusted to pH 3.5. The rate of cleavage of Gly-Phe dipeptide was monitored at 37° C. by measuring the increase in absorbance at 405 nm. One unit of activity leads to a 0.90 OD change per minute under these conditions. Unit/ml estimates can be made assuming an extinction coefficient for free p-nitroanilide (pNA) of 9.9 mM-1 cm-1 at 405 nm.
(§2) The inhibition profile of dDAP toward the substrate GFpNA was compared to that of bovine spleen DAP-I using iodoacetamide and potassium tetrathionate, sulfhydryl modifying agents known to inhibit the activity of bovine spleen DAP-I. Samples of dDAP or bovine spleen DAP-I were incubated for 15 minutes at room temperature in final concentrations of 0, 0.5, 5.0 or 50 mM of either inhibitor at pH 7 in 100 mM Tris buffer. The incubated solutions were then diluted 21-fold with 4 mM GFpNA, pH 3.5. The rate of cleavage was monitored by measuring the increase in absorbance at 405 nm at 37° C. Bovine DAP-I's rate of cleavage of GFpNA was decreased more than 90% by the exposure to 5 mM iodoacetamide and was 95% inhibited by 5 mM potassium tetrathionate.

bovine spleen DAP-I = target: T1, bovine spleen DAP-I (Bos taurus, UniProt Q3ZCJ8); assay: as above; format: biochemical; conditions: 5 mM inhibitor, 15 minutes at room temperature, pH 7; then 4 mM GFpNA, pH 3.5, 37° C.; read-out: decrease (inhibition) of rate of cleavage of GFpNA
T1 construct: bovine spleen DAP-I; from tissue; host or cells: bovine spleen
T1 sequence (Q3ZCJ8 231-394 limits assumed): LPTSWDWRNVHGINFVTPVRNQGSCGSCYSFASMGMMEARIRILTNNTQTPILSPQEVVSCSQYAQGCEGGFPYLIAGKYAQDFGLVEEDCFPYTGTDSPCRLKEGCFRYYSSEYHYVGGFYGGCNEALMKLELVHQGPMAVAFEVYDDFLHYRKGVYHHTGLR
T1 sequence (Q3ZCJ8 395-463 limits assumed): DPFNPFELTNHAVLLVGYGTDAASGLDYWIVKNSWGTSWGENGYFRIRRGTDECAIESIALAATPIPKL
T1 sequence (Q3ZCJ8 25-143 limits assumed): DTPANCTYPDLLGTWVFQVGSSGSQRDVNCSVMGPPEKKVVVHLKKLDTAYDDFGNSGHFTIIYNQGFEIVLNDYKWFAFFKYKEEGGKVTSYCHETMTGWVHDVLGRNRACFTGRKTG
Description: as §1, §2

dDAP [2] = assay: pH dependence of substrate cleavage by dDAP; format: biochemical, Dictyostelium discoideum; conditions: unbound dDAP
Description: The pH optima for the GFpNA cleaving ability of dDAP was determined by adjusting a buffer consisting of 0.5M Tris®, phosphate and citrate with 10% HCl or 10% NaOH to various pHs within the range of 3 to 8. dDAP enzyme was diluted 20-fold in a buffer containing 100 mM cysteamine and 10 mM NaCl. Bovine DAP-I was diluted 200-fold in the same buffer. A GFpNA substrate solution (4 mM) was prepared in 2% dimethylformamide. In a microtiter plate, 0.025 ml of the Tris/phosphate/citrate buffer of various pH's was combined with 0.1 ml of diluted enzyme and with 0.1 ml of substrate solution. The rate of increase of absorbance at 410 nm was determined on a plate-reader over a 30 minute period.
Four mM GRpNA was prepared in 50 mM acetic acid, 50 mM glycine buffer, pH 5. HCl or NaOH was used to achieve a variety of pHs, from 5.1 to 2.3. To 180 ul of the above pH buffered substrate was added 5 ul dDAP (49 milliunits/ml final). The rate of increase of absorbance at 410 nm was monitored (using a plate-reader) and the rate of increase was compared with the pH of the reaction solution.
(§3) About 0.25 mM RRBNA or 0.25 mM Z-RRBNA was prepared in either 100 mM acetic acid, pH 3.5, or 100 mM citrate buffer, pH 5.0. To 2 ml of substrate was added dDAP or bovine DAP-I (about 15 milliunit/ml solution). Rates of cleavage (monitoring fluorescence increase at 410 nm with excitation at 340 nm) were monitored. […] The pH optimum for cleavage of RRBNA was probed by monitoring the rate of RRBNA cleavage using a buffer system consisting of 50 mM acetic acid and 50 mM citrate. Various pHs were achieved using HCl or NaOH and 1.5 ml volumes were made 2.0 with 0.5 ml of a 1 mM stock solution of RRBNA (final concentration of about 0.25 mM). dDAP was added (to about 15 mU/ml) and the rates of cleavage were determined.
The skilled artisan will recognize that the optimum pH for cleavage of a substrate not only depends upon the enzyme but the substrate itself, that is, the constitution of the removed dipeptide as well as the indicator group itself.

bovine DAP-I = target: T2, bovine DAP-I (Bos taurus, UniProt Q3ZCJ8); assay: Cleavage of RRBNA and Z-RRBNA (fluorescence increase); format: biochemical; conditions: about 0.25 mM substrate, pH 3.5 or pH 5.0, about 15 milliunit/ml enzyme
T2 construct: bovine spleen DAP-I; from tissue; host or cells: bovine spleen
T2 sequence (Q3ZCJ8 231-394 limits assumed): as the sequence (Q3ZCJ8 231-394 limits assumed) above
T2 sequence (Q3ZCJ8 395-463 limits assumed): as the sequence (Q3ZCJ8 395-463 limits assumed) above
T2 sequence (Q3ZCJ8 25-143 limits assumed): as the sequence (Q3ZCJ8 25-143 limits assumed) above
Description: as §3

dDAP [3] = assay: as above; format: biochemical, Dictyostelium discoideum; conditions: about 0.25 mM substrate, pH 3.5 or pH 5.0, about 15 milliunit/ml enzyme
Description: as §3

SMILES: NC(=O)CI [iodoacetamide]
- inhibition of GFpNA cleavage (dDAP [1]): no evidence of significant inhibition
- inhibition at 5000 µM (bovine spleen DAP-I): > 90%

SMILES: O=S(=O)([O-])SSS(=O)(=O)[O-].[K+].[K+] [potassium tetrathionate]
- inhibition of GFpNA cleavage (dDAP [1]): no evidence of significant inhibition

SMILES: NCC(=O)N[C@@H](Cc1ccccc1)C(=O)Nc1ccc([N+](=O)[O-])cc1 [GFpNA, Gly-Phe p-nitroanilide] (H-Gly-Phe-pNA)
- pH optimum for cleavage of the substrate (dDAP [2]): ~3.5 pH

- cleavage of substrate (bovine DAP-I): unable to cleave
SMILES: N=C(N)NCCC[C@H](NC(=O)[C@@H](N)CCCNC(=N)N)C(=O)Nc1ccc2ccccc2c1 [RRBNA, Arg-Arg-β-naphthylamide] (H-Arg-Arg-βNA)
- activity over the pH range (dDAP [2]): significant activity seen over the entire range probed (pH 3.5 to pH 5.7)
- cleavage of substrate (dDAP [3]): able to effectively cleave

SMILES: Cc1cc(=O)oc2cc(NC(=O)[C@H](CCCNC(=N)N)NC(=O)CN)ccc12 [Gly-Arg-7-amido-4-methylcoumarin] (H-Gly-Arg-{AMC})
- pH optimum for cleavage of the substrate (dDAP [2]): ~5 pH

- cleavage of substrate (bovine DAP-I): unable to cleave
SMILES: N=C(N)NCCC[C@H](NC(=O)OCc1ccccc1)C(=O)N[C@@H](CCCNC(=N)N)C(=O)Nc1ccc2ccccc2c1 [Z-RRBNA, Benzyioxycarbonyl-RRBNA] (Cbz-Arg-Arg-βNA)
- cleavage of substrate (dDAP [3]): unable to cleave

SMILES: N=C(N)NCCC[C@H](NC(=O)CN)C(=O)Nc1ccc([N+](=O)[O-])cc1 [GRpNA, Gly-Arg-pNA] (H-Gly-Arg-pNA)
- activity over the pH range (dDAP [2]): little activity below pH 2.5 or above pH 5
- pH optimum for cleavage of the substrate (dDAP [2]; listed as G1y-Arg-pNA): ~3.5 pH
